Data: patent US20240034736A1, “HSD17B13 INHIBITORS AND USES THEREOF” (FL2022-001, Inc., priority 2020, published 2024)

Target: Recombinant human HSD17B13 enzyme (Homo sapiens (Human), UniProt Q7Z5P4)
Assay: HSD17b13 NAD(P)H-Glo Biochemical Assay
Settings: 50 uM estradiol, 1 mM NAD+; read-out: HSD17β13 IC50
How it was run: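 Recombinant human HSD17B13 was pre-incubated with inhibitor for 20 min at RT in 20 mM Tris pH 7.4 with 0.002% Tween-20 and 0.02% BSA. Reaction then ran with 50 uM estradiol and 1 mM NAD+ (final) for 3 h at 37° C. NADH formed was detected by NAD(P)H-Glo luminescence after 1 h at RT.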

Recombinant human HSD17B13 enzyme, sequence (Q7Z5P4 20-300): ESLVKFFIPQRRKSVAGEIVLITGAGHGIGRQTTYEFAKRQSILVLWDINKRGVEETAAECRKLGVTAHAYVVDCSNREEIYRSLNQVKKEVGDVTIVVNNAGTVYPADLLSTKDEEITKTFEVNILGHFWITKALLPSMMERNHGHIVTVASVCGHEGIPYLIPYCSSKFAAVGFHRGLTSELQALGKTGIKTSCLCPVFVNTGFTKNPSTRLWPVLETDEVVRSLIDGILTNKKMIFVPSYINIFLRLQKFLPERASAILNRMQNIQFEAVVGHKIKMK

| SMILES | IC50 [nM] |
| --- | --- |
| CS(=O)(=O)N1CCN(c2ccc3c(c2)c(C2CC2)nn3-c2cc(O)c(F)c(F)c2)CC1 [Compound 21.12, 5-(3-Cyclopropyl-5-(4-(meth-ylsulfonyl)piperazin-1-yl)-1H-indazol-1-yl)-2,3-difluoro-phenol] | 1000 to 30000 |
| CS(=O)(=O)N1CCN(c2cc(Cl)c3c(cnn3-c3cc(O)c(F)c(F)c3)c2)CC1 [Compound 21.16, 5-(7-Chloro-5-(4-(methyl-sulfonyl)piperazin-1-yl)-1H-indazol-1-yl)-2,3-difluoro-phenol] | 1000 to 30000 |
| Cc1nn(-c2cc(C(F)(F)F)c(F)c(O)c2F)c2cnc(N3CCN(S(C)(=O)=O)CC34CC4)nc12 [Compound 19.107, 2,6-Difluoro-3-(3-methyl-5-(7-(methylsulfonyl)-4,7-diazaspiro[2.5]octan-4-yl)-1H-pyrazolo[4,3-d]pyrimidin-1-yl)-5-(trifluoromethyl)phenol] | < 100 |
| Cc1nn(-c2cc(C(F)(F)F)c(F)c(O)c2F)c2cc(F)c(N(C)C3CCOCC3)nc12 [Compound 19.66, 2,6-Difluoro-3-(6-fluoro-3-methyl-5-(methyl(tetrahydro-2H-pyran-4-yl)amino)-1H-pyrazolo[4,3-b]pyridin-1-yl)-5-(trifluoromethyl)phenol] | < 100 |
| COc1ccc(-c2ccc3c(cnn3-c3ccc(F)c(O)c3)c2)cc1Cl [Compound 2, 5-(5-(3-Chloro-4-methoxyphenyl)-1H-indazol-1-yl)-2-fluorophenol] | 100 to 1000 |
| Cc1cc(O)c(F)c(-n2ncc3cc(N4CCN(S(C)(=O)=O)CC4)ccc32)c1 [Compound 28.05, 2-Fluoro-5-methyl-3-(5-(4-(methylsulfonyl)piperazin-1-yl)-1H-indazol-1-yl)phenol] | 1000 to 30000 |
| CC(=O)c1cc(-n2nc(C)c3cc(N4CCOCC45CC5)ncc32)cc(O)c1F [Compound 19.86, 1-(2-Fluoro-3-hydroxy-5-(3-methyl-5-(7-oxa-4-azaspiro[2.5]octan-4-yl)-1H-pyrazolo[3,4-c]pyridin-1-yl)phenyl)ethanone] | 100 to 1000 |
| Oc1cc(-c2noc3cc(-c4ccc(O)c(Cl)c4)ccc23)ccc1F [Compound 5.30, 2-Chloro-4-(3-(4-fluoro-3-hydroxyphenyl)benzo[d]isoxazol-6-yl)phenol] | 100 to 1000 |
| Cc1nn(-c2cc(C(F)(F)F)c(F)c(O)c2F)c2cnc(N3CCOCC34CC4)cc12 [Compound 19.44, 2,6-Difluoro-3-(3-methyl-5-(7-oxa-4-azaspiro[2.5]octan-4-yl)-1H-pyrazolo[3,4-c]pyridine-1-yl)-5-(trifluoromethyl)phenol] | < 100 |
| CC1CN(S(C)(=O)=O)CCN1c1ccc2c(cnn2-c2cc(O)c(F)c(C(F)(F)F)c2)c1 (centres unmarked) [Compound 21.47, 2-Fluoro-5-(5-(2-methyl-4-(methylsulfonyl)piperazin-1-yl)-1H-indazol-1-yl)-3-(trifluoromethyl)phenol] | 100 to 1000 |
| CC(C)c1nn(-c2cc(O)c(F)c(F)c2)c2ccc(N3CCN(S(C)(=O)=O)CC3)cc12 [Compound 21.03, 2,3-Difluoro-5-(3-isopropyl-5-(4-(methylsulfonyl)piperazin-1-yl)-1H-indazol-1-yl)phenol] | 1000 to 30000 |
| COC1CN(c2ccc3c(cnn3-c3cc(O)c(F)c(F)c3)c2)C1 [Compound 21.25, 2,3-Difluoro-5-(5-(3-methoxy-azetidin-1-yl)-1H-indazol-1-yl)phenol] | 1000 to 30000 |
| CC1(C)CN(S(C)(=O)=O)CCN1c1ccc2c(cnn2-c2cc(O)c(F)c(C(F)(F)F)c2)c1 [Compound 21.48, 5-(5-(2,2-Dimethyl-4-(methyl-sulfonyl)piperazin-1-yl)-1H-indazol-1-yl)-2-fluoro-3-(trifluoromethyl)phenol] | 1000 to 30000 |
| Cc1nn(-c2cc(O)c(F)c(C(N)=O)c2)c2cnc(N3CCOCC34CC4)cc12 [Compound 19.96, 2-Fluoro-3-hydroxy-5-(3-methyl-5-(7-oxa-4-azaspiro[2.5]octan-4-yl)-1H-pyrazolo[3,4-c]pyridin-1-yl)benzamide] | 1000 to 30000 |
| Cc1nn(-c2ccc(F)c(O)c2)c2ccc(-c3ccc(O)c(Cl)c3)cc12 [Compound 4.05, 2-Chloro-4-(1-(4-fluoro-3-hydroxyphenyl)-3-methyl-1H-indazol-5-yl)phenol] | 100 to 1000 |
| O=S(=O)(Cc1ccccc1)N1CCN(c2ccc3c(cnn3-c3cc(O)c(F)c(F)c3)c2)CC1 [Compound 21.10, 5-(5-(4-(Benzylsulfonyl)-piperazin-1-yl)-1H-indazol-1-yl)-2,3-difluorophenol] | 100 to 1000 |
| Oc1cc(-n2ncc3cc(N4CCOCC4)ncc32)cc(C(F)(F)F)c1F [Compound 21.57, 2-Fluoro-5-(5-morpholino-1H-pyrazolo[3,4-c]pyridin-1-yl)-3-(trifluoromethyl)phenol] | 100 to 1000 |

| SMILES | IC50 [nM] |
| --- | --- |
| O=S(=O)(CC1CC1)N1CCN(c2cc3cnn(-c4cc(O)c(F)c(F)c4)c3cc2Cl)CC1 [Compound 21.38, 5-(6-Chloro-5-(4-((cycloprop-ylmethyl)sulfonyl)piperazin-1-yl)-1H-indazol-1-yl)-2,3-difluorophenol] | 100 to 1000 |
| CS(=O)(=O)N1CCN(c2cc3cnn(-c4cc(O)c(F)c(C(F)(F)F)c4)c3nn2)CC1 [Compound 28.08, 2-Fluoro-5-(5-(4-(methyl-sulfonyl)piperazin-1-yl)-1H-pyrazolo[3,4-c]pyridazin-1-yl)-3-(trifluoromethyl)phenol] | 1000 to 30000 |
| CNS(=O)(=O)c1ccc(-c2ccc3c(cnn3-c3ccc(F)c(O)c3)c2)cc1 [Compound 5.13, 4-(1-(4-Fluoro-3-hydroxyphenyl)-1H-indazol-5-yl)-N-methylbenzenesulfonamide] | 100 to 1000 |
| Cc1nn(-c2cc(C(F)(F)F)c(F)c(O)c2F)c2cnc(N3CCN(S(C)(=O)=O)C4(CCCCC4)C3)cc12 [Compound 19.105, 2,6-Difluoro-3-(3-methyl-5-(1-(methylsulfonyl)-1,4-diazaspiro[5.5]undecan-4-yl)-1H-pyrazolo[3,4-c]pyridin-1-yl)-5-(trifluoromethyl)phenol] | < 100 |
| Cc1nn(-c2cc(C(F)(F)F)c(F)c(O)c2F)c2cc(F)c(N3CCN(S(C)(=O)=O)CC34CC4)cc12 [Compound 19.100, 2,6-Difluoro-3-(6-fluoro-3-methyl-5-(7-(methylsulfonyl)-4,7-diazaspiro[2.5]octan-4-yl)-1H-indazol-1-yl)-5-(trifluoromethyl)phenol] | < 100 |
| CS(=O)(=O)N1CCN(c2cc3cn(-c4ccc(F)c(O)c4)nc3cn2)CC1 [Compound 19.10, 2-Fluoro-5-(5-(4-(methylsulfonyl)piperazin-1-yl)-2H-pyrazolo[3,4-c]pyridine-2-yl)phenol] | 1000 to 30000 |
| Cc1ccc(-c2ccc3c(cnn3-c3cc(O)c(F)c(F)c3)c2)cn1 [Compound 7.02, 2,3-Difluoro-5-(5-(6-methylpyridin-3-yl)-1H-indazol-1-yl)phenol] | 100 to 1000 |
| CS(=O)(=O)N1CCN(c2cc3c(C4CC4)nn(-c4cc(O)c(F)c(C(F)(F)F)c4)c3cn2)CC1 [Compound 21.51, 5-(3-Cyclopropyl-5-(4-(meth-ylsulfonyl)piperazin-1-yl)-1H-pyrazolo[3,4-c]pyridine-1-yl)-2-fluoro-3-(trifluoromethyl)-phenol] | 100 to 1000 |
| Cc1cc(-n2cc3cc(N4CCN(S(C)(=O)=O)CC4)ncc3n2)cc(O)c1F [Compound 19.24, 2-Fluoro-3-methyl-5-(5-(4-(methylsulfonyl)piperazin-1-yl)-2H-pyrazolo[3,4-c]pyridine-2-yl)phenol] | 1000 to 30000 |
| CS(=O)(=O)N1CCN(c2cc3cnn(-c4ccc(Cl)c(O)c4)c3cn2)CC1 [Compound 19.14, 2-Chloro-5-(5-(4-(methylsulfonyl)piperazin-1-yl)-1H-pyrazolo[3,4-c]pyridine-1-yl)phenol] | 1000 to 30000 |
| Cc1nn(-c2cc(O)c(F)cc2C#N)c2cnc(N(C)C3CCOCC3)cc12 [Compound 19.62, 5-Fluoro-4-hydroxy-2-(3-methyl-5-(methyl(tetrahydro-2H-pyran-4-yl)amino)-1H-pyrazolo[3,4-c]pyridin-1-yl)benzonitrile] | 100 to 1000 |
| CNC(=O)C1(c2ccc3c(cnn3-c3cc(O)c(F)c(F)c3)c2)CCN(S(C)(=O)=O)CC1 [Compound 29, 4-(1-(3,4-Difluoro-5-hydroxyphenyl)-1H-indazol-5-yl)-N-methyl-1-(methylsulfonyl)piperidine-4-carboxamide] | 1000 to 30000 |
| COc1ccc(-c2ccc3c(cnn3-c3cc(O)c(F)c(F)c3F)c2)cc1Cl [Compound 1.03, 5-(5-(3-Chloro-4-methoxyphenyl)-1H-indazol-1-yl)-2,3,4-trifluorophenol] | 100 to 1000 |
| CS(=O)(=O)N1CCN(c2cc3cnn(-c4cc(O)c(F)c(F)c4)c3cc2Cl)CC1 [Compound 21.13, 5-(6-Chloro-5-(4-(methyl-sulfonyl)piperazin-1-yl)-1H-indazol-1-yl)-2,3-difluoro-phenol] | 100 to 1000 |
| Oc1cc(-n2ncc3cc(-c4ccc(O)c(Cl)c4)ccc32)cc(C(F)(F)F)c1 [Compound 3.04, 2-Chloro-4-(1-(3-hydroxy-5-(trifluoromethyl)phenyl)-1H-indazol-5-yl)phenol] | 100 to 1000 |
| CS(=O)(=O)N1CCN(c2cc3cnn(-c4cc(O)c(F)c(C(F)(F)F)c4)c3cc2Cl)CC1 [Compound 19, 5-(6-Chloro-5-(4-(methylsulfonyl)piperazin-1-yl)-1H-indazol-1-yl)-2-fluoro-3-(trifluoromethyl)phenol] | < 100 |

Same assay, conditions: read-out: HSD17β13 inhibition at 10 uM

| SMILES | inhibition at 10 µM [%] |
| --- | --- |
| CN(C)C(=O)C1(c2ccc3c(cnn3-c3cc(O)c(F)c(F)c3)c2)CCN(S(C)(=O)=O)CC1 [Compound 29.01, 4-(1-(3,4-Difluoro-5-hydroxy-phenyl)-1H-indazol-5-yl)-N,N-dimethyl-1-(methyl-sulfonyl)piperidine-4-carbox-amide] | < 20 |

Same assay, conditions: read-out: HSD17β13 inhibition at 30 uM

| SMILES | inhibition at 30 µM [%] |
| --- | --- |
| CS(=O)(=O)N1CCN(c2ccc3c(c2)cc(C(=O)O)n3-c2ccc(F)c(O)c2)CC1 [Compound 21.61, 1-(4-Fluoro-3-hydroxyphenyl)-5-(4-(methylsulfonyl)piperazin-1-yl)-1H-indole-2-carboxylic acid] | < 20 |
